Test results: patent publication US12398121B2 (Nuvation Bio Inc., priority 2018, dated 2025)
Like-named read-outs stand apart in the source and are kept apart here.

What was measured:
Human recombinant PARP1 = Human recombinant PARP1 (Homo sapiens, UniProt P09874); assay: RBC HotSpot PARP1 radioisotope-based filter binding assay; type: biochemical
Procedure: The following methods are for evaluating the in vitro biology properties of the test articles. • a. RBC HotSpot Poly(ADP-ribose) Polymerases 1 (PARP1) and Poly(ADP-ribose) Polymerases 2 (PARP2) Assays: The assay principle is radioisotope-based filter binding assay where incorporation of radioisotope-labeled NAD^+ into the substrate captured on filter is detected after washout free NAD^+. Data were analyzed using Excel and GraphPad Prism software for IC50 curve fits. Each assay was conducted with PJ34 as a positive control. • i. PARP1 assay: Human recombinant PARP1 at a final concentration of 2.5 nM was combined with histone H4 (20 μM) and test articles at various concentrations in reaction buffer (50 mM Tris-HCL, pH 8.0, 50 mM NaCl, 10 mM MgCl2, 1 mM DTT, 1% DMSO, and 20 μg/mL activated DNA). The solution was inoculated for 20 min at room temperature and the reaction initiated by adding [adenylate-^32P]-Nicotinamide Adenine Dinucleotide, ^32P-NAD^+ at a final concentration of 10 μM. After incubation for 2 hour at room temperature, the reaction mixture was filtered and washed with 0.75% phosphoric acid for radioactivity detection. • ii. PARP2 assay: Human recombinant PARP2 at a final concentration of 2.5 nM was combined with histone H3 (20 μM) and test articles at various concentrations in reaction buffer (50 mM Tris-HCL, pH 8.0, 50 mM NaCl, 10 mM MgCl2, 1 mM DTT, 1% DMSO, and 20 μg/mL activated DNA). The solution was inoculated for 20 min at room temperature and the reaction was initiated by adding [adenylate-^32P]-Nicotinamide Adenine Dinucleotide, ^32P-NAD^+ at a final concentration of 10 μM. After incubation for 2 hour at room temperature, the reaction mixture was filtered and washed with 0.75% phosphoric acid for radioactivity detection. • b. AR binding assay: AR in LNCaP cytosol was used for determining the binding affinity of test articles and the reference compound—progesterone (Sigma, Cat: E2785, St. Louis, MO). IC50s were determined using 8 concentrations/compound. Cytosol was plated at 200 μg/well (100 μL) into a 96-well conical polypropylene plate (Agilent, Cat: 5042-1385, Santa Clara, CA) and mixed with 3 μL of test compound. After adding 100 μL of ^3H-methyltrienolone (PerkinElmer, Cat: NET590250UC, San Jose, CA), the plate was sealed and shaken at 300 rpm at 4° C. for 24 hours. Post incubation, 100 μL of radioligand adsorption buffer containing 10 mM Tris-HCl, pH 7.4; 1.5 mM EDTA; 1 mM DTT; 0.25% charcoal; 0.0025% dextran was added to individual well. Plate was shaken for 15 min at 4′C followed by centrifugation at 3000 rpm for 30 min at 4° C. 150 μL of supernatant was transferred into scint-tube (PerkinElmer, Cat: 6000192) and mixed with 2 mL of Ultima Gold Cocktail (PerkinElmer, Cat: 6013329). Radioactivity was counted using a TriCarb 2910 TR scintillation counter (PerkinElmer). Inhibition of the radioactivity by test articles were calculated using the equation below: % Inhibition=(1−(Assay well−Average_LC)/(Average_HC−Average_LC))×100%.

22RV1 cells = assay: Cell proliferation assay (CellTiter Glo), 22RV1; type: cell-based; settings: Homo sapiens, 22Rv1, 72 h, read-out: 22RV1 IC50
Procedure: IC50 values were calculated and graphed using the model “log(inhibitor) vs. response—Variable slope” included in GraphPad Prism 5 (San Diego, CA). The Ki values were further calculated using the equation below where [L] was the radioligand concentration (1 nM) using in this study. Kd value was 0.332 nM. Ki=IC50/(1+[L]/Kd) c. AR transactivation: Human AR cloned into a CMV vector backbone was used for the transactivation study. HEK-293 cells were plated at 80,000 cells per well of a 24 well plate in DME+5% csFBS. Twenty four hours later, the cells were transfected using Lipofectamine (Invitrogen, Carlsbad, CA) with 0.25 μg GRE-LUC, 0.01 μg CMV-LUC (renilla luciferase) and 25 ng of the AR in OPTIMEM medium. The cells were treated 24 hrs after transfection with various ligands (10^−12 to 10^−5 M final concentrations) and luciferase assay were performed 48 hours after transfection. Firefly values were normalized to renilla luciferase values and the values were represented as relative light units (RLU). Agonist and antagonist assays for the test article were performed in the absence and in the combination with 0.1 nM R1881, respectively. Data were represented as EC50 (for agonists) and IC50 (for antagonists) obtained from four parameter logistics curve. Cell culture and proliferation assays: LNCaP, PC-3, 22RV1, MCF-7, HT-29, and HCT-116 cells were procured from American Type Culture Collection (ATCC). Cells were cultured in medium recommended by the ATCC. Cell culture medium was obtained from Fisher scientific (Waltham, MA) and serum was obtained from Hyclone (San Angelo, TX).
Cells were plated at varying density in the respective growth medium in 96 well plates. 24 hr later, cells were treated, in triplicate or quadruplicate, with test articles prepared in a range of concentrations by series dilution of DMSO stock solutions in growth medium and incubated for three to seven days. The number of viable 22RV1 and HT-29 cells was measured using CellTiter Glo assay (CTG, Promega, Madison, WI) after three days of treatment. The other types of cancer cells were re-treated at three or four days and the number of viable cells was measured using CTG assay after a total treatment time of six or seven days. Cell viability data were plotted using GraphPad Prism (GraphPad Software, Inc., San Diego, CA). In addition, a nonlinear regression model with a sigmoidal dose response and variable slope within GraphPad Prism was used to calculate the IC50 value of individual test articles. Additional cell proliferation assays: Other cancer cell lines are tested in a cell proliferation assay. For example, SK-OV-3 or OVCAR3 ovarian cancer cells are tested. Cells are cultured in medium recommended by the supplier (e.g., ATCC or JCRB Cell Bank), at 37° C. in a 5% CO2 environment. For the proliferation assay, cells are plated in the growth medium in 96 well plates. Seeding density is adjusted according to the cell type. 24 hr later, cells are treated, in triplicate or quadruplicate, with test articles prepared in a range of concentrations by series dilution of DMSO stock solutions in growth medium, and typically incubated for three to seven days, with test article-containing medium replaced after three or four days. The number of viable cells is measured using CellTiter Glo assay (CTG, Promega, Madison, WI) or similar. Cell viability data are plotted using GraphPad Prism (GraphPad Software, Inc., San Diego, CA). In addition, a nonlinear regression model with a sigmoidal dose response and variable slope within GraphPad Prism is used to calculate the IC50 value of individual test articles. Similarly, HEK-293 and HeLa calls can also be tested by methods known in the art. • f. Nuclear translocation: LNCaP cells are plated on coverslips in 24 well plates in growth medium. Twenty-four hours after plating, medium is changed to RPMI+1% csFBS and the cells are maintained in this medium for two days. Medium is replaced again and the cells are treated. […]

[1] = 2.5 nM enzyme, histone H4, 10 μM 32P-NAD+, read-out: PARP1 IC50

Sequence of Human recombinant PARP1 (P09874 whole entry): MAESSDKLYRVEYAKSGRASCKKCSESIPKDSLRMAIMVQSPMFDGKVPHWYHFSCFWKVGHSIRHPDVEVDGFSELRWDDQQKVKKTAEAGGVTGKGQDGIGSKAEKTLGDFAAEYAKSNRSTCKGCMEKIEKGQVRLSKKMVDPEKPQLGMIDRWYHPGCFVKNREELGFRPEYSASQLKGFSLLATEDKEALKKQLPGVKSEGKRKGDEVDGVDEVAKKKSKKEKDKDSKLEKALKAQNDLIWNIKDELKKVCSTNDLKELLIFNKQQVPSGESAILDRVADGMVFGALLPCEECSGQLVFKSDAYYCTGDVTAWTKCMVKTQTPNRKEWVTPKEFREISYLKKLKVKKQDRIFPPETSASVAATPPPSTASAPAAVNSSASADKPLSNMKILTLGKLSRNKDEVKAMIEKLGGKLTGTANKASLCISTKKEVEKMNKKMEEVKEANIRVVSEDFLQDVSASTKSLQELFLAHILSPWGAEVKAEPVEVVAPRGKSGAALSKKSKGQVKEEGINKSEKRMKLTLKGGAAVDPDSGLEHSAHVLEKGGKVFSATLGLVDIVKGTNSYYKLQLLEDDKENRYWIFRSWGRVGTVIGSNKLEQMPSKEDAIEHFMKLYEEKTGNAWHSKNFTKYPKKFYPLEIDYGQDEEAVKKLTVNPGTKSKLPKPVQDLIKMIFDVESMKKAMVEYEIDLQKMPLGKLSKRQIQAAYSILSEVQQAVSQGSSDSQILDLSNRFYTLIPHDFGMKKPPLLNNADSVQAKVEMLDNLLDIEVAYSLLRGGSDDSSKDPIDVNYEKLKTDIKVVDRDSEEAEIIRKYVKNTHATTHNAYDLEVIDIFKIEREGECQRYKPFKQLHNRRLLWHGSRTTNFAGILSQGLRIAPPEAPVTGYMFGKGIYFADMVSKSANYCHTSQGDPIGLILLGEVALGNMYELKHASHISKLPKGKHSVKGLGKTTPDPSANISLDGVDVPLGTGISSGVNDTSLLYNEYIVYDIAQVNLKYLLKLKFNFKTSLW

SMILES	IC50 (Human recombinant PARP1) [nM]	IC50 (22RV1 cells) [nM]	IC50 (Human recombinant PARP1; [1]) [nM]	IC50 (22RV1 cells; cell growth inhibition, three days of treatment) [nM]
CC(O)(CS(=O)(=O)c1ccc(NCCn2cc(CN3CCN(C(=O)c4cc(Cc5n[nH]c(=O)c6ccccc56)ccc4F)CC3)nn2)cc1)C(=O)Nc1ccc(C#N)c(C(F)(F)F)c1 (stereo in doubt) [Compound 1.97, (S)-N-(4-cyano-3-(trifluoromethyl)phenyl)-3-(4-(2-(4-((4-(2-fluoro-5-((4-oxo-3,4-dihydrophthalazin-1-yl)methyl)benzoyl)piperazin-1-yl)methyl)-1H-1,2,3-triazol-1-yl)ethylamino)phenylsulfonyl)-2-hydroxy-2-methylpropanamide]	2	> 30000		
C[C@]12CCC(=O)C[C@@H]1CC[C@@H]1[C@@H]2CC[C@@]2(C)[C@H]1CC[C@@]2(O)CCC(=O)N1CCN(C(=O)c2cc(Cc3n[nH]c(=O)c4ccccc34)ccc2F)CC1 (stereo in doubt) [Compound 1.117, 4-(4-fluoro-3-(4-(3-((5S,8R,9S,10S,13S,14S,17R)-17-hydroxy-10,13-dimethyl-3-oxohexadecahydro-1H-cyclopenta[a]phenanthren-17-yl)propanoyl)piperazine-1-carbonyl)benzyl)phthalazin-1(2H)-one]			0.3	440
CC1(C)C(=O)N(c2ccc(C#N)c(C(F)(F)F)c2)C(=S)N1c1ccc(C(=O)NCCCCCC(=O)N2CCN(C(=O)c3cc(Cc4n[nH]c(=O)c5ccccc45)ccc3F)CC2)c(F)c1 [Compound 1.1, 4-(3-(4-cyano-3-(trifluoromethyl)phenyl)-5,5-dimethyl-4-oxo-2-thioxoimidazolidin-1-yl)-2-fluoro-N-(6-(4-(2-fluoro-5-((4-oxo-3,4-dihydrophthalazin-1-yl)methyl)benzoyl)piperazin-1-yl)-6-oxohexyl)benzamide]	2			
C[C@]12CCC(=O)C[C@@H]1CC[C@@H]1[C@@H]2CC[C@]2(C)[C@@H](OCCCCCC(=O)N3CCN(C(=O)c4cc(Cc5n[nH]c(=O)c6ccccc56)ccc4F)CC3)CC[C@@H]12 [Compound 1.2, 4-(3-(4-(6-(((5S,8R,9S,10S,13S,14S,17S)-10,13-dimethyl-3-oxohexadecahydro-1H-cyclopenta[a]phenanthren-17-yl)oxy)hexanoyl)piperazine-1-carbonyl)-4-fluorobenzyl)phthalazin-1(2H)-one]		400	3	
CC1(C)C(=O)N(c2ccc(C#N)c(C(F)(F)F)c2)C(=S)N1c1ccc(C(=O)NCCCCCCNCc2ccc(-c3[nH]c4cc(F)cc5c4c3CCNC5=O)cc2)c(F)c1 [Compound 1.5, 4-(3-(4-cyano-3-(trifluoromethyl)phenyl)-5,5-dimethyl-4-oxo-2-thioxoimidazolidin-1-yl)-2-fluoro-N-(6-((4-(8-fluoro-1-oxo-2,3,4,6-tetrahydro-1H-azepino[5,4,3-cd]indol-5-yl)benzyl)amino)hexyl)benzamide]	23	4500		
C[C@](O)(CS(=O)(=O)c1ccc(NCCCCCC(=O)N2CCN(C(=O)c3cc(Cc4n[nH]c(=O)c5ccccc45)ccc3F)CC2)cc1)C(=O)Nc1ccc(C#N)c(C(F)(F)F)c1 [Compound 1.68, (R)-N-(4-cyano-3-(trifluoromethyl)phenyl)-3-(4-(6-(4-(2-fluoro-5-((4-oxo-3,4-dihydrophthalazin-1-yl)methyl)benzoyl)piperazin-1-yl)-6-oxohexylamino)phenylsulfonyl)-2-hydroxy-2-methylpropanamide]	0.3	4700		
C[C@](O)(COc1ccc(NCCCCCC(=O)N2CCN(C(=O)c3cc(Cc4n[nH]c(=O)c5ccccc45)ccc3F)CC2)cc1)C(=O)Nc1ccc(C#N)c(C(F)(F)F)c1 [Compound 1.83, (S)-N-(4-cyano-3-(trifluoromethyl)phenyl)-3-(4-(6-(4-(2-fluoro-5-((4-oxo-3,4-dihydrophthalazin-1-yl)methyl)benzoyl)piperazin-1-yl)-6-oxohexylamino)phenoxy)-2-hydroxy-2-methylpropanamide]		> 30000	0.7	
C[C@](O)(CS(=O)(=O)c1ccc(NCC(=O)N2CCN(C(=O)c3cc(Cc4n[nH]c(=O)c5ccccc45)ccc3F)CC2)cc1)C(=O)Nc1ccc(C#N)c(C(F)(F)F)c1 [Compound 1.98, (R)-N-(4-cyano-3-(trifluoromethyl)phenyl)-3-(4-(2-(4-(2-fluoro-5-((4-oxo-3,4-dihydrophthalazin-1-yl)methyl)benzoyl)piperazin-1-yl)-2-oxoethylamino)phenylsulfonyl)-2-hydroxy-2-methylpropanamide]	0.2	3500		
CN(CCCCCC(=O)N1CCN(C(=O)c2cc(Cc3n[nH]c(=O)c4ccccc34)ccc2F)CC1)CCOc1ccc(C(=O)c2c(-c3ccc(O)cc3)sc3cc(O)ccc23)cc1 [Compound 2.4, 4-(4-fluoro-3-(4-(6-((2-(4-(6-hydroxy-2-(4-hydroxyphenyl)benzo[b]thiophene-3-carbonyl)phenoxy)ethyl)(methyl)amino)hexanoyl)piperazine-1-carbonyl)benzyl)phthalazin-1(2H)-one]			4	
CCC(=C(c1ccc(O)cc1)c1ccc(OCCN2CCN(C(=O)c3cc(Cc4n[nH]c(=O)c5ccccc45)ccc3F)CC2)cc1)c1ccccc1 [Compound 2.14, 4-(4-fluoro-3-(4-(2-(4-(1-(4-hydroxyphenyl)-2-phenylbut-1-enyl)phenoxy)ethyl)piperazine-1-carbonyl)benzyl)pthalazin-1(2H)-one]			274	
